“And” between values parts separate entries of the source, which are not always exact repeats. Equal entries are not always repeated. Inconclusive results and toxic doses are left out. How the source made its calls: active means survival T/C of 150% or more; inactive means T/C below 125% in these data.
System: BDF1 mice, P388 leukemia ip, median survival T/C
Assay: NCI In Vivo Anticancer Drug Screen. Data for tumor model P388 Leukemia (intraperitoneal) in B6D2F1 (BDF1) mice
Conditions: endpoint: median survival time, higher = longer survival
Method: The antitumor activity of compounds was measured in mice bearing transplantable tumors. Survival or tumor size were measured and the results are expressed as the measurement made in the treated group (T) divided by the measurement made in the vehicle treated control group (C). The tumor model used in this assay is P388 Leukemia (intraperitoneal) in B6D2F1 (BDF1) mice

[1] = dose: 6.25 mg/kg/injection, schedule: Q01DX009 (ip), vehicle: saline with Tween-80
[2] = dose: 12.5 mg/kg/injection, schedule: Q01DX009 (ip), vehicle: saline with Tween-80
[3] = dose: 25.0 mg/kg/injection, schedule: Q01DX009 (ip), vehicle: saline with Tween-80
[4] = dose: 25.0 mg/kg/injection, schedule: Q04DX003 (ip), vehicle: saline with Tween-80
[5] = dose: 50.0 mg/kg/injection, schedule: Q01DX009 (ip), vehicle: saline with Tween-80
[6] = dose: 50.0 mg/kg/injection, schedule: Q04DX003 (ip), vehicle: saline with Tween-80
[7] = dose: 100.0 mg/kg/injection, schedule: Q01DX009 (ip), vehicle: saline with Tween-80
[8] = dose: 100.0 mg/kg/injection, schedule: Q04DX003 (ip), vehicle: saline with Tween-80
[9] = dose: 200.0 mg/kg/injection, schedule: Q01DX009 (ip), vehicle: saline with Tween-80
[10] = dose: 200.0 mg/kg/injection, schedule: Q04DX003 (ip), vehicle: saline with Tween-80
[11] = dose: 100.0 mg/kg/injection, schedule: Q04DX003 (ip), vehicle: Klucel (hydroxypropylcellulose) (HPC)
[12] = dose: 100.0 mg/kg/injection, schedule: Q04DX002 (ip), vehicle: saline with Tween-80
[13] = dose: 200.0 mg/kg/injection, schedule: Q04DX002 (ip), vehicle: saline with Tween-80
[14] = dose: 20.0 mg/kg/injection, schedule: Q01DX009 (ip), vehicle: Klucel (hydroxypropylcellulose) (HPC)
[15] = dose: 40.0 mg/kg/injection, schedule: Q01DX009 (ip), vehicle: Klucel (hydroxypropylcellulose) (HPC)
[16] = dose: 80.0 mg/kg/injection, schedule: Q01DX009 (ip), vehicle: Klucel (hydroxypropylcellulose) (HPC)
[17] = dose: 400.0 mg/kg/injection, schedule: Q04DX003 (ip), vehicle: saline with Tween-80

Measured: T/C

c1ccc(-c2cc(-c3ccccc3)[s+]s2)cc1
inactive: [1] 111 % of control | [2] 117 % of control and 124 % of control | [3] 91 % of control and 110 % of control and 115 % of control | [4] 98 % of control | [5] 92 % of control and 113 % of control | [6] 109 % of control and 115 % of control | [7] 98 % of control and 113 % of control | [8] 117 % of control and 118 % of control | [9] 99 % of control and 120 % of control | [10] 108 % of control | dose: 300.0 mg/kg/injection, schedule: Q01DX009 (ip), vehicle: saline with Tween-80 94 % of control

CCOc1cccc(OCC)c1C
inactive: dose: 75.0 mg/kg/injection, schedule: Q01DX009 (ip), vehicle: Klucel (hydroxypropylcellulose) (HPC) 100 % of control | dose: 150.0 mg/kg/injection, schedule: Q01DX009 (ip), vehicle: Klucel (hydroxypropylcellulose) (HPC) 100 % of control | dose: 300.0 mg/kg/injection, schedule: Q01DX009 (ip), vehicle: Klucel (hydroxypropylcellulose) (HPC) 100 % of control

CCCCCCCCCCCC(=O)N(C)C
inactive: dose: 100.0 mg/kg/injection, schedule: Q01DX009 (ip), vehicle: Klucel (hydroxypropylcellulose) (HPC) 105 % of control | [11] 104 % of control | dose: 200.0 mg/kg/injection, schedule: Q01DX009 (ip), vehicle: Klucel (hydroxypropylcellulose) (HPC) 105 % of control | dose: 200.0 mg/kg/injection, schedule: Q04DX003 (ip), vehicle: Klucel (hydroxypropylcellulose) (HPC) 100 % of control | dose: 400.0 mg/kg/injection, schedule: Q04DX003 (ip), vehicle: Klucel (hydroxypropylcellulose) (HPC) 100 % of control

CC(C)=CCC(OC(=O)C=C(C)C)C1=CC(=O)c2c(O)ccc(O)c2C1=O (centres undefined)
inactive: dose: 1.25 mg/kg/injection, schedule: Q01DX009 (ip), vehicle: carboxymethylcellulose (CMC) 100 % of control | dose: 2.5 mg/kg/injection, schedule: Q01DX009 (ip), vehicle: carboxymethylcellulose (CMC) 95 % of control | dose: 3.12 mg/kg/injection, schedule: Q01DX009 (ip), vehicle: water 118 % of control | dose: 6.25 mg/kg/injection, schedule: Q01DX009 (ip), vehicle: water 113 % of control | dose: 6.25 mg/kg/injection, schedule: Q04DX003 (ip), vehicle: water 122 % of control | dose: 12.5 mg/kg/injection, schedule: Q04DX003 (ip), vehicle: water 122 % of control

Cc1cc(N(C)C)ccc1/C=C/c1ccnc2ccccc12
inactive: [12] 117 % of control | [13] 107 % of control

COc1ccc(C(=O)/C=C/c2ccc(OCc3ccccc3)cc2)cc1
inactive: [5] 100 % of control | [7] 91 % of control | [9] 96 % of control

O=C(CCN1CC1)Nc1ccc(Cl)c(Cl)c1
inactive: dose: 25.0 mg/kg/injection, schedule: Q04DX003 (ip), vehicle: Klucel (hydroxypropylcellulose) (HPC) 90 % of control | dose: 50.0 mg/kg/injection, schedule: Q04DX003 (ip), vehicle: Klucel (hydroxypropylcellulose) (HPC) 104 % of control | [11] 100 % of control

CN1CCCC(C(=O)c2ccccc2)S1(=O)=O (centres undefined)
inactive: [12] 104 % of control | [13] 114 % of control | dose: 400.0 mg/kg/injection, schedule: Q04DX002 (ip), vehicle: saline with Tween-80 107 % of control

Cc1cc2c([nH]c1=O)C(=O)c1c(O)cccc1C2=O
inactive: dose: 2.5 mg/kg/injection, schedule: Q01DX009 (ip), vehicle: Klucel (hydroxypropylcellulose) (HPC) 103 % of control | dose: 5.0 mg/kg/injection, schedule: Q01DX009 (ip), vehicle: Klucel (hydroxypropylcellulose) (HPC) 108 % of control | dose: 10.0 mg/kg/injection, schedule: Q01DX009 (ip), vehicle: Klucel (hydroxypropylcellulose) (HPC) 103 % of control | [14] 104 % of control | [15] 95 % of control | [16] 115 % of control

Cc1c(O)ccc(=O)n1O
inactive: [14] 108 % of control | dose: 20.0 mg/kg/injection, schedule: Q01DX009 (ip), vehicle: saline 95 % of control | [15] 121 % of control | dose: 40.0 mg/kg/injection, schedule: Q01DX009 (ip), vehicle: saline with Tween-80 117 % of control | dose: 40.0 mg/kg/injection, schedule: Q01DX009 (ip), vehicle: saline 95 % of control | [16] 110 % of control | [7] 116 % of control | [8] 104 % of control | dose: 160.0 mg/kg/injection, schedule: Q01DX009 (ip), vehicle: saline with Tween-80 122 % of control | dose: 160.0 mg/kg/injection, schedule: Q01DX009 (ip), vehicle: saline 100 % of control | [9] 108 % of control | [10] 100 % of control | [17] 90 % of control

CNC(=S)N/N=C(/C)CCC/C(C)=N/NC(=S)NC
inactive: [1] 106 % of control | [2] 108 % of control | [3] 99 % of control

CO[C@H](C)[C@@](O)(C(=O)OCC1=CCN2CCC[C@@H]12)C(C)C
inactive: dose: 20.0 mg/kg/injection, schedule: Q01DX010 (ip), vehicle: carboxymethylcellulose (CMC) 95 % of control | dose: 40.0 mg/kg/injection, schedule: Q01DX010 (ip), vehicle: carboxymethylcellulose (CMC) 115 % of control | dose: 80.0 mg/kg/injection, schedule: Q01DX010 (ip), vehicle: carboxymethylcellulose (CMC) 110 % of control

c1ccc2c(c1)ccc1nc3c4ccccc4c4ccccc4c3nc12
inactive: [5] 114 % of control | [7] 113 % of control | [9] 105 % of control

CCCCn1cnc2c(SC)ncnc21
inactive: dose: 22.0 mg/kg/injection, schedule: Q04DX003 (ip), vehicle: saline 100 % of control | dose: 33.0 mg/kg/injection, schedule: Q04DX003 (ip), vehicle: saline 104 % of control | dose: 50.0 mg/kg/injection, schedule: Q01DX009 (ip), vehicle: saline 95 % of control | dose: 50.0 mg/kg/injection, schedule: Q04DX003 (ip), vehicle: saline 104 % of control | dose: 75.0 mg/kg/injection, schedule: Q04DX003 (ip), vehicle: saline 113 % of control | dose: 100.0 mg/kg/injection, schedule: Q01DX009 (ip), vehicle: saline 100 % of control | dose: 100.0 mg/kg/injection, schedule: Q04DX003 (ip), vehicle: saline 104 % of control | dose: 200.0 mg/kg/injection, schedule: Q01DX009 (ip), vehicle: saline 104 % of control | dose: 200.0 mg/kg/injection, schedule: Q04DX003 (ip), vehicle: saline 90 % of control

CC(=O)Nc1ccc2c(c1)C[N+](C)(C1CCCCC1)CO2 (centres undefined)
inactive: [3] 109 % of control | [4] 95 % of control | [5] 109 % of control | [6] 91 % of control | [8] 95 % of control

C#CC(C)OCC1CNC(=S)O1 (centres undefined)
inactive: [6] 110 % of control | [8] 100 % of control | [10] 115 % of control | [17] 110 % of control

CCCCCC(=O)O[C@]1(C(C)=O)CC[C@H]2[C@@H]3CCC4=CC(=O)CC[C@]4(C)[C@H]3CC[C@@]21C
inactive: dose: 44.0 mg/kg/injection, schedule: Q01DX009 (ip), vehicle: saline with Tween-80 105 % of control | dose: 66.0 mg/kg/injection, schedule: Q01DX009 (ip), vehicle: saline with Tween-80 110 % of control | [7] 90 % of control | [8] 100 % of control | dose: 150.0 mg/kg/injection, schedule: Q01DX009 (ip), vehicle: saline with Tween-80 100 % of control | [9] 105 % of control | [10] 100 % of control | dose: 400.0 mg/kg/injection, schedule: Q01DX009 (ip), vehicle: saline with Tween-80 100 % of control | [17] 100 % of control

O=C1N=C2C=CC=CN2C(=O)C1Cc1ccccc1 (centres undefined)
inactive: [8] 96 % of control | [10] 100 % of control | [17] 104 % of control

N#CC(C#N)=C(C#N)C#N
inactive: dose: 0.78 mg/kg/injection, schedule: Q01DX009 (ip), vehicle: Klucel (hydroxypropylcellulose) (HPC) 90 % of control | dose: 1.56 mg/kg/injection, schedule: Q01DX009 (ip), vehicle: Klucel (hydroxypropylcellulose) (HPC) 100 % of control | dose: 1.56 mg/kg/injection, schedule: Q04DX003 (ip), vehicle: Klucel (hydroxypropylcellulose) (HPC) 100 % of control | dose: 3.13 mg/kg/injection, schedule: Q01DX009 (ip), vehicle: Klucel (hydroxypropylcellulose) (HPC) 100 % of control | dose: 3.13 mg/kg/injection, schedule: Q04DX003 (ip), vehicle: Klucel (hydroxypropylcellulose) (HPC) 100 % of control
